{"source": "patent US11000065B2", "about": "“Aerosol generation and exposure system” (CHARLES R. DREW UNIVERSITY OF MEDICINE AND SCIENCE, priority 2016, dated 2021)", "assay": "Electronic cigarette aerosol exposure experiment on mice: plasma concentrations", "settings": "9 mice; inhalation of aerosol from one electronic cigarette, 4 seconds per puff, one puff every 20 sec, 10 puffs per episode, one episode every 30 min, 4 episodes in 2 hours", "data": [{"smiles": "CN1CCCC1c1cccnc1", "note": "(stereo not shown) [nicotine]", "values": [{"measurement": "Mouse plasma nicotine concentration (mean±SD)", "value": "35.3 ± 20.0", "unit": "ng/mL"}]}]}
